Assay [1] concerns Mycobacterium tuberculosis. In words: MMV: Screen against Mtb, single point, non replicating, at 25uM. It counts as functional.
Assay [2] deals with Mycobacterium tuberculosis. Briefly: MMV: Screen against Mtb, single point, replicating, at 25uM. It counts as functional.

Take `COc1ccc(Nc2nc(N/N=C/c3ccc(O)cc3)nc(Nc3ccc([N+](=O)[O-])cc3)n2)cc1`: the inhibition at 25 µM is 31.8% in assay [1] and 15.3% in assay [2].

Consider `Nc1nc(Nc2cccc(F)c2)nc2ccccc12`, for which the inhibition at 25 µM was 9.12% in assay [1] and 13.4% in assay [2].

Take `COc1ccc(/C=C2/SC(=Nc3ccccc3)NC2=O)cc1`: the inhibition at 25 µM in assay [1] was found to be 24.4%; in assay [2] it was 15.9%.

`COc1ccc(-c2nc(N3CCN(C(=O)C4CCCCC4)CC3)c3c4c(sc3n2)CCCC4)cc1`: the inhibition at 25 µM in assay [1] stood at 12.7%; in assay [2], 14.2%.

In the case of `O=C(NC1CCN(Cc2ccccc2)CC1)c1cc2nc(-c3ccc(Cl)s3)cc(C(F)(F)F)n2n1`, the inhibition at 25 µM in assay [1] amounted to 15.3%; in assay [2] it was 20.1%.

Regarding `Cc1sc(NC(=O)c2ccccc2)c(C(c2cccs2)N2CCN(c3ccccc3)CC2)c1C` (stereo unspecified), the inhibition at 25 µM in assay [1] turned out to be 13%; in assay [2] it was 7.6%.

For `Cc1sc(NC(=O)c2ccco2)c(C(c2cccnc2)N2CCC(Cc3ccccc3)CC2)c1C` (stereo unspecified), the values for the inhibition at 25 µM in assay [1] and in assay [2] were -1.7% and 21.7%, respectively.

Take `CCOC(=O)c1c(C)n(-c2ccccc2)c2ccc(OC(=O)c3cc(OC)c(OC)c(OC)c3)cc12`: the inhibition at 25 µM in assay [1] came out at 6.46%; in assay [2], 22.2%.

With `COc1cc(C(=O)Nc2nc3c(cc4c5c(cccc53)CC4)s2)cc(OC)c1OC`, the inhibition at 25 µM was 17.8% in assay [1] and -3.53% in assay [2].

With `COc1ccc(CCN2C(=O)c3[nH]nc(-c4cc(Cl)c(C)cc4O)c3C2c2ccccc2F)cc1` (stereo unspecified), the figures for the inhibition at 25 µM in assay [1] and in assay [2] were 16.2% and -0.705%, respectively.

As for `N#Cc1nc(Cc2cccc3ccccc23)oc1N1CCN(C(c2ccccc2)c2ccccc2)CC1`, the values for the inhibition at 25 µM in assay [1] and in assay [2] were 18.9% and 7.13%, respectively.

Turning to `O=C(NNc1cc(N2CCCC2)nc(N2CCCC2)n1)c1ccccc1`, the inhibition at 25 µM came to 30.6% in assay [1] and 12% in assay [2].

`COC(=O)c1ccc(Cl)c2c1C1C=CCC1C(c1cccc3ccccc13)N2` (stereo unspecified): the inhibition at 25 µM in assay [1] was -4.9%; in assay [2] it was 12.1%.

Take `COc1ccc(C2c3ccc4ccccc4c3Oc3ncn(CCCn4ccnc4)c(=N)c32)cc1OC` (stereo unspecified): the inhibition at 25 µM worked out at 11.1% in assay [1] and 46.8% in assay [2].

Take `CN(N=O)C1=C(NC2CCCCC2)C(=O)c2ccccc2C1=O`: the inhibition at 25 µM in assay [1] is 7.53%; in assay [2] it was -2.12%.

Consider `O=C(CCc1ccccc1)c1ccccc1OCC(O)CN1CCCCC1` (stereo unspecified), for which the inhibition at 25 µM stood at 0.25% in assay [1] and 12.9% in assay [2].

As to `OC1=C2C(=Nc3ccccc3SC2c2ccccc2)c2ccccc21` (stereo unspecified), the inhibition at 25 µM amounted to 14.1% in assay [1] and 8.39% in assay [2].

As to `COc1cc(C(=O)Nc2ccc(-c3nc4ccccc4[nH]3)cc2)cc(OC)c1OC`, the inhibition at 25 µM in assay [1] was found to be 19.1%; in assay [2], 27%.

For the molecule `CCOc1ccc(N2C(N)=NC(N)=NC2(C)C)cc1`, the inhibition at 25 µM in assay [1] was 8.77%; in assay [2], -0.705%.

In the case of `COc1cccc(Nc2nc(N)c3ccccc3n2)c1`, the inhibition at 25 µM in assay [1] came out at 11.4%; in assay [2], 6.04%.

In the case of `Cc1ccc(C(=O)c2oc3ccc4c(C)cc(=O)oc4c3c2C)cc1`, the inhibition at 25 µM in assay [1] came out at 5.4%; in assay [2], 1.18%.

As for `COC(=O)c1ccc(C2C3=C(O)CC(c4ccc(F)cc4)CC3=Nc3ccccc3N2C(=O)c2ccccc2)cc1` (stereo unspecified), the inhibition at 25 µM stood at 18.9% in assay [1] and 28.3% in assay [2].

With `CCCCCCc1cc2cc(-c3csc(C=Cc4ccccc4)n3)c(=O)oc2cc1O`, the results for the inhibition at 25 µM in assay [1] and in assay [2] were 9.83% and -0.392%, respectively.

Take `O=C(CCl)NCCOc1ccc(Cl)cc1Cl`: the inhibition at 25 µM in assay [1] was 25.3%; in assay [2], 35%.

Consider `Oc1ccc(-c2nc(-c3ccc4oc5ccc(-c6[nH]c(-c7ccc(O)cc7)nc6-c6ccccc6)cc5c4c3)c(-c3ccccc3)[nH]2)cc1`, for which the inhibition at 25 µM was 13% in assay [1] and 19.2% in assay [2].

Regarding `CC(Oc1ccc(NC(=O)c2cccs2)cc1)C(=O)c1ccc(Cl)cc1` (stereo unspecified), the inhibition at 25 µM in assay [1] was -0.638%; in assay [2] it was 2.74%.

As to `CCOc1ccc(CN2CCN(CC(O)COc3ccc(OCC(O)CN4CCN(Cc5ccc(OCC)cc5)CC4)cc3)CC2)cc1` (stereo unspecified), the inhibition at 25 µM in assay [1] was 17.5%; in assay [2], 13.2%.

With `CCCCNc1nc(NC(C)(C)C)nc(NC(C)(C)C)n1`, the inhibition at 25 µM in assay [1] was determined as 42.1%; in assay [2], 32.8%.

Turning to `COc1ccc(CNC(=O)c2cc3c(=O)n4ccccc4nc3n(CCc3ccccc3)c2=N)cc1`, the inhibition at 25 µM in assay [1] stood at 6.82%; in assay [2], 20.3%.

Turning to `O=C(NC1CCN(Cc2ccccc2)CC1)c1cc(C(=O)NC2CCN(Cc3ccccc3)CC2)cc(C(=O)NC2CCN(Cc3ccccc3)CC2)c1`, the inhibition at 25 µM in assay [1] was determined as 3.44%; in assay [2] it was 7.92%.

On to `COc1ccc(CCn2c(=N)c(C(=O)NCc3cccnc3)cc3c(=O)n4cccc(C)c4nc32)cc1`, for which the inhibition at 25 µM was found to be 8.77% in assay [1] and 4.47% in assay [2].

Take `CC(=O)c1sc(NC(=O)Nc2ccc(C)cc2C)nc1C`: the results for the inhibition at 25 µM in assay [1] and in assay [2] were 6.64% and 10.3%, respectively.

Consider `COc1ccc(-c2cn3c(C(=O)Nc4ccccc4Cl)c(-c4ccccc4)c4c3n2CCCC4)cc1`, for which the results for the inhibition at 25 µM in assay [1] and in assay [2] were 2.56% and 8.39%, respectively.

As for `Cn1c(=O)n(C)c2cc(CNCCNc3ccnc4cc(Cl)ccc34)ccc21`, the inhibition at 25 µM in assay [1] is 8.95%; in assay [2], 11.4%.

As for `Cn1c(C(=O)c2cccc3ccccc23)nc2ccccc21`, the inhibition at 25 µM is 31.5% in assay [1] and 4.31% in assay [2].

With `CCN(CC)CCNc1ccnc2cc3ccccc3cc12`, the inhibition at 25 µM in assay [1] was 0.0721%; in assay [2], 0.862%.

Turning to `COc1ccc(C=C2SC(Nc3ccc(F)cc3)=NC2=O)c(OC)c1`, the values for the inhibition at 25 µM in assay [1] and in assay [2] were 7.53% and 23.3%, respectively.

On to `O=C(Nc1ccc(-c2nc3ccccc3[nH]2)cc1)c1ccc(Cl)c(Cl)c1`, for which the figures for the inhibition at 25 µM in assay [1] and in assay [2] were 26.5% and 9.8%, respectively.

Consider `O=C(Nc1ccc(-c2nc3cc(NC(=O)c4ccc(Cl)cc4)ccc3[nH]2)cc1)c1ccc(Cl)cc1`, for which the inhibition at 25 µM in assay [1] is 17.6%; in assay [2] it was 11.7%.

In the case of `COc1ccccc1C(=O)ON=C(N)Cc1cccc2ccccc12`, the inhibition at 25 µM in assay [1] was found to be 32.7%; in assay [2], 52.3%.

For the molecule `COc1ccc(C(=O)C(CCC(CNC(C)(C)C)C(=O)c2ccc(OC)cc2)CNC(C)(C)C)cc1` (stereo unspecified), the inhibition at 25 µM was found to be 21% in assay [1] and 10.9% in assay [2].

On to `CCOc1cc2c(cc1OCC)C(c1cc(Cl)ccc1O)NCC2` (stereo unspecified), for which the inhibition at 25 µM in assay [1] is -6.67%; in assay [2] it was 7.45%.

Regarding `COc1cc(C(=O)ON=C(N)Cc2cccc3ccccc23)cc(OC)c1OC`, the inhibition at 25 µM was 24.2% in assay [1] and 59.3% in assay [2].

For `CN1C=C(c2ccc3ccccc3n2)C(c2c[nH]c3ccccc23)c2ccccc21` (stereo unspecified), the values for the inhibition at 25 µM in assay [1] and in assay [2] were 20.1% and 19.7%, respectively.

For the molecule `Oc1c(C(Nc2ccccn2)c2cccc(Oc3ccccc3)c2)ccc2cccnc12` (stereo unspecified), the inhibition at 25 µM is 11.8% in assay [1] and -15.4% in assay [2].

Turning to `COc1cc(-c2nc(-c3ccccc3)c(-c3ccccc3)[nH]2)cc(OC)c1O`, the figures for the inhibition at 25 µM in assay [1] and in assay [2] were 18% and 17%, respectively.

Regarding `OC(CNC1CCCCC1)Cn1c2ccc(I)cc2c2cc(I)ccc21` (stereo unspecified), the inhibition at 25 µM worked out at 10.9% in assay [1] and 16.9% in assay [2].

As to `CCc1ccc(CNCC(O)c2ccccc2)cc1` (stereo unspecified), the inhibition at 25 µM was 4.33% in assay [1] and 35.5% in assay [2].

As to `CCn1c2c(c(=N)c3c1CCC3)CCCC2`, the inhibition at 25 µM in assay [1] was 8.24%; in assay [2], 10.1%.

Take `CCOc1ccc(Nc2ccnc3cc(Cl)ccc23)cc1`: the figures for the inhibition at 25 µM in assay [1] and in assay [2] were 8.59% and 54.6%, respectively.

Take `Oc1ccc(Br)cc1CN1CCN(Cc2ccc(Cl)cc2)CC1`: the inhibition at 25 µM in assay [1] came out at 17.6%; in assay [2], 19.7%.

Take `COc1cc2c3cc1Oc1c(OC)c(OC)cc4c1C(Cc1ccc(O)c(c1)Oc1ccc(cc1)CC3N(C)CC2)N(C)CC4` (stereo unspecified): the inhibition at 25 µM turned out to be 18.5% in assay [1] and 3.53% in assay [2].

For `Cc1ccc(C)c(-c2csc(Nc3ccc(C)c(C)c3)n2)c1`, the inhibition at 25 µM in assay [1] turned out to be 9.48%; in assay [2], 12.5%.

Take `COc1ccc2sc(N(Cc3cccnc3)C(=O)c3ccc(C#N)cc3)nc2c1`: the inhibition at 25 µM was found to be 5.22% in assay [1] and 15% in assay [2].

For `CC1CC2=C(CC1CNCCCN(C)C)C(C)(C)CCC2` (stereo unspecified), the inhibition at 25 µM in assay [1] was -0.993%; in assay [2] it was 42.2%.

Take `CN(C)c1ccc(N=Cc2ccc(N3CCOCC3)cc2)cc1`: the results for the inhibition at 25 µM in assay [1] and in assay [2] were -1.53% and 38.8%, respectively.

As to `CCOC(=O)c1cnc2ccc(OC)cc2c1NCc1ccccc1`, the values for the inhibition at 25 µM in assay [1] and in assay [2] were 23% and 40.2%, respectively.

On to `CCOC(=O)C1=CN(C)C=C(C(=O)OCC)C1c1cc(Br)c(OCC)c(OC)c1`, for which the inhibition at 25 µM in assay [1] was 10.7%; in assay [2] it was -1.96%.

`CC(C)(C)c1ccc(C2CC3=Nc4ccccc4N(C(=O)c4ccccc4Cl)C(c4ccc(F)cc4)C3=C(O)C2)cc1` (stereo unspecified): the values for the inhibition at 25 µM in assay [1] and in assay [2] were 14.4% and 1.49%, respectively.

As for `CN1CCN(c2nc(Nc3ccc(O)cc3)nc3ccccc23)CC1`, the inhibition at 25 µM turned out to be 6.46% in assay [1] and 8.7% in assay [2].

For the molecule `CCCCc1c(CCC)c(=N)c2ccccc2n1C`, the inhibition at 25 µM is -5.96% in assay [1] and 6.04% in assay [2].

Regarding `Nc1ccn([C@@H]2O[C@H](CO)[C@@H](O)[C@H]2O)c(=O)n1` [CYTIDINE], the inhibition at 25 µM in assay [1] was 14.6%; in assay [2], -3.06%.

Turning to `O=C(Nc1cccc(C2=NCCN2)c1)Nc1cccc(C2=NCCN2)c1` [IMIDOCARB], the inhibition at 25 µM was 11.1% in assay [1] and 5.56% in assay [2].

Values taken from ChEMBL document CHEMBL2094260, “Malaria Box Tuberculosis Screening Data”.
